Laboratory results: the supplement of paper PMC13380429

Key:
Settings in all cases: 72 h
Calu-3 [1] = assay: cell viability relative to DMSO; higher = less toxic
Caco-2 [2] = assay: as above
HepG2 [3] = assay: as above
Calu-3 [4] = assay: drug sensitivity score (DSS) for viability; higher = more toxic; extreme values may be limits of the assay
Caco-2 [5] = assay: as above
HepG2 [6] = assay: as above
Calu-3 [7] = assay: relative viability EC50 (midpoint between 100% and the lowest measured viability); higher = less toxic
Caco-2 [8] = assay: as above
HepG2 [9] = assay: as above
Vero E6 [10] = assay: cell viability relative to DMSO; higher = less toxic
U2OS [11] = assay: as above
Vero E6 [12] = assay: drug sensitivity score (DSS) for viability; higher = more toxic; extreme values may be limits of the assay
U2OS [13] = assay: as above
U2OS [14] = assay: relative viability EC50 (midpoint between 100% and the lowest measured viability); higher = less toxic
Vero E6 [15] = assay: as above

| Structure (SMILES) | cell viability (Calu-3 [1]; 1 nM) [%] | cell viability (Calu-3 [1]; 10 nM) [%] | cell viability (Calu-3 [1]; 100 nM) [%] | cell viability (Calu-3 [1]; 1000 nM) [%] | cell viability (Calu-3 [1]; 10000 nM) [%] | cell viability (Caco-2 [2]; 1 nM) [%] | cell viability (Caco-2 [2]; 10 nM) [%] | cell viability (Caco-2 [2]; 100 nM) [%] | cell viability (Caco-2 [2]; 1000 nM) [%] | cell viability (Caco-2 [2]; 10000 nM) [%] | cell viability (HepG2 [3]; 1 nM) [%] | cell viability (HepG2 [3]; 10 nM) [%] | cell viability (HepG2 [3]; 100 nM) [%] | cell viability (HepG2 [3]; 1000 nM) [%] | cell viability (HepG2 [3]; 10000 nM) [%] | drug sensitivity score (Calu-3 [4]) | drug sensitivity score (Caco-2 [5]) | drug sensitivity score (HepG2 [6]) | relative viability EC50 (Calu-3 [7]) [µM] | relative viability EC50 (Caco-2 [8]) [µM] | relative viability EC50 (HepG2 [9]) [µM] | cell viability (Vero E6 [10]; 1 nM) [%] | cell viability (Vero E6 [10]; 10 nM) [%] | cell viability (Vero E6 [10]; 100 nM) [%] | cell viability (Vero E6 [10]; 1000 nM) [%] | cell viability (Vero E6 [10]; 10000 nM) [%] | cell viability (U2OS [11]; 1 nM) [%] | cell viability (U2OS [11]; 10 nM) [%] | cell viability (U2OS [11]; 100 nM) [%] | cell viability (U2OS [11]; 1000 nM) [%] | cell viability (U2OS [11]; 10000 nM) [%] | drug sensitivity score (Vero E6 [12]) | drug sensitivity score (U2OS [13]) | relative viability EC50 (U2OS [14]) [µM] | relative viability EC50 (Vero E6 [15]) [µM] |
| --- | --- | --- | --- | --- | --- | --- | --- | --- | --- | --- | --- | --- | --- | --- | --- | --- | --- | --- | --- | --- | --- | --- | --- | --- | --- | --- | --- | --- | --- | --- | --- | --- | --- | --- | --- |
| CN1C[C@@H]2CN(c3ccc(-c4ccccc4)nn3)C[C@@H]2C1 | 90.3 | 100 | 97.6 | 98.6 | 91.6 | 105 | 104 | 101 | 103 | 99.5 | 104 | 97.3 | 110 | 98.9 | 96 | 0 | 0 | 0 | > 10 | > 10 | > 10 |  |  |  |  |  |  |  |  |  |  |  |  |  |  |
| CNc1cc2c(Nc3cccc(Br)c3)ncnc2cn1 | 101 | 98.4 | 93.9 | 53.5 | 37.7 | 102 | 92.5 | 91.2 | 84.5 | 49.7 | 93.8 | 105 | 95.9 | 100 | 64.9 | 9.5 | 4.4 | 1.6 | 0.47 | 1.55 |  | 92.4 | 97.3 | 88.4 | 72.4 | 53.1 | 99.4 | 97.6 | 98.3 | 92.2 | 89.6 | 6.2 | 0 | > 10 |  |
| COc1ccc(-c2ccc3c(N4CCOCC4)nc(N4C[C@@H](C)O[C@@H](C)C4)nc3n2)cc1CO |  |  |  |  |  |  |  |  |  |  |  |  |  |  |  | 10.1 |  | 7.2 |  |  |  |  |  |  |  |  |  |  |  |  |  | 4.6 | 5.1 |  |  |
| NCCc1ccccn1 [2-pyridylethylamine] | 98.8 | 88.4 | 93.4 | 105 | 101 | 110 | 96.4 | 107 | 101 | 108 | 113 | 104 | 113 | 113 | 93.6 | 0 | 0 | 0 | > 10 | > 10 | > 10 | 95.2 | 105 | 105 | 102 | 96.6 |  |  |  |  |  | 0 |  |  | > 10 |
| c1ccc(N2CCN(Cc3nc4ccccc4[nH]3)CC2)nc1 [ABT-724] | 93.5 | 105 | 101 | 104 | 114 | 91.7 | 99.8 | 97.8 | 100 | 94 | 92.4 | 100 | 99.2 | 95.7 | 106 | 0 | 0 | 0 | > 10 | > 10 | > 10 |  |  |  |  |  | 98.8 | 103 | 98.7 | 104 | 98.6 |  | 0 | > 10 |  |
| C1Cc2[nH]nc(-c3nn[nH]n3)c2C1 [MK-0354] | 99.8 | 92.7 | 91.6 | 112 | 101 | 97 | 91.1 | 95.2 | 88.9 | 102 | 102 | 98 | 95.6 | 105 | 95.4 | 0 | 0 | 0 | > 10 | > 10 | > 10 |  |  |  |  |  | 101 | 96.2 | 103 | 96.7 | 103 |  | 0 | > 10 |  |
| COc1cc(S(C)(=O)=O)ccc1Nc1nc2ccc(-c3ccc(NC(=O)[C@H](C)c4ccc(F)cc4)cc3)cn2n1 [Mps1-IN-5] | 101 | 94.6 | 94.6 | 101 | 91.8 | 97.7 | 96.4 | 103 | 78.2 | 87.4 | 106 | 108 | 106 | 56.2 | 49.2 | 0 | 2.9 | 7.9 | > 10 | > 10 | 0.508 | 101 | 97 | 95.2 | 66.4 | 71.5 | 99.9 | 99.6 | 94.2 | 66.7 | 70.6 | 6.6 | 6.7 |  |  |
| CC#CC(=O)N1CC[C@@H](n2c(=O)n(-c3ccc(Oc4ccccc4)cc3)c3c(N)ncnc32)C1 [ONO-4059] | 91.2 | 96.7 | 73.6 | 36 | 41.3 | 97.6 | 87 | 93.9 | 73.8 | 73.7 | 96.7 | 99.3 | 89.6 | 102 | 101 | 14.8 | 4.4 | 0 | 0.121 |  | > 10 | 89.5 | 97.4 | 90.7 | 80.2 | 68.2 | 101 | 91.4 | 103 | 92.5 | 93.6 | 3.9 | 0 | > 10 |  |
